Assay results taken from patent US9352013B2, “Uses of bremelanotide in therapy for female sexual dysfunction” (Palatin Technologies, Inc., priority 2012, dated 2016).
Marks after values point to notes of the source that are not given here.

Assay: Example 1: ambulatory blood pressure monitoring
Type: in vivo, human
Settings: for Pulse: treatment group difference (from placebo) in mean change from single-blind placebo: in bpm (unit assumed); for DBP: treatment group difference (from placebo) in mean change from single-blind placebo / SBP: treatment group difference (from placebo) in mean change from single-blind placebo: in mmHg (unit assumed); for HR-BP Product: treatment group difference (from placebo) in mean change from single-blind placebo: in mmHg·bpm (unit assumed)
Procedure: Ambulatory blood pressure monitoring was conducted following both placebo and randomized treatment group in-clinic administrations. Three periods of ambulatory blood pressure monitoring were included, the first period was from before to 24 hours after a single, in-clinic dose of placebo (to establish a baseline); the second and third periods occurred from before to 24 hours after each of 2 single, in-clinic doses of double-blind treatment, administered within 14 days of each other. Blood samples for pharmacokinetic analysis were collected before and at 0.5, 1.0, and 2.0 hours after each in-clinic bremelanotide single-dose treatment (double-blind only), to permit analysis of concentration-response relationships.
Mean changes in blood pressure were characterized in all subjects based on sequential supervised dosing of single-blind subcutaneous placebo and two doses of randomized study drug. The primary analysis for mean changes was the difference between treatment groups in the change from single-blind placebo to randomized drug (Visit 2 vs. Visits 5/7). There were between 86 to 100 subjects in each dose group.
Although there were an increased number of outliers for maximal changes from baseline in systolic blood pressure in drug-treated patients, the duration of these events was quite limited. The interrogation interval during ambulatory blood pressure monitoring assessments of 15 minutes allowed definition of the maximal duration of such excursions. […] The clinical significance of such changes, if any, is small.

[1] = 0.75 mg SC, interval 0-24 h, V5
[2] = 0.75 mg SC, interval 0-24 h, V7
[3] = 0.75 mg SC, interval 8-24 h, V5
[4] = 0.75 mg SC, interval 8-24 h, V7
[5] = 1.25 mg SC, interval 0-24 h, V5
[6] = 1.25 mg SC, interval 0-24 h, V7

CCCC[C@H](NC(C)=O)C(=O)N[C@H]1CC(=O)NCCCC[C@@H](C(=O)O)NC(=O)[C@H](Cc2c[nH]c3ccccc23)NC(=O)[C@H](CCCNC(=N)N)NC(=O)[C@@H](Cc2ccccc2)NC(=O)[C@H](Cc2c[nH]cn2)NC1=O [bremelanotide, Ac-Nle-cyclo(-Asp-His-D-Phe-Arg-Trp-Lys)-OH]
Systolic blood pressure shifts: ΔSBP >10 mmHg, Duration >30 minutes (0.75 mg SC): 1 | Systolic blood pressure shifts: ΔSBP >15 mmHg, Duration >30 minutes (0.75 mg SC): 0 | Pulse: treatment group difference (from placebo) in mean change from single-blind placebo (0.75 mg SC, interval 0-4 h, V5): −5.2* | DBP: treatment group difference (from placebo) in mean change from single-blind placebo (0.75 mg SC, interval 0-4 h, V5): 1.5 | SBP: treatment group difference (from placebo) in mean change from single-blind placebo (0.75 mg SC, interval 0-4 h, V5): 1.8 | HR-BP Product: treatment group difference (from placebo) in mean change from single-blind placebo (0.75 mg SC, interval 0-4 h, V5): −492.8* | Pulse: treatment group difference (from placebo) in mean change from single-blind placebo (0.75 mg SC, interval 0-4 h, V7): −4.8* | DBP: treatment group difference (from placebo) in mean change from single-blind placebo (0.75 mg SC, interval 0-4 h, V7): 0.6 | SBP: treatment group difference (from placebo) in mean change from single-blind placebo (0.75 mg SC, interval 0-4 h, V7): 1.1 | HR-BP Product: treatment group difference (from placebo) in mean change from single-blind placebo (0.75 mg SC, interval 0-4 h, V7): −491.9* | Pulse: treatment group difference (from placebo) in mean change from single-blind placebo [1]: −2.2* | DBP: treatment group difference (from placebo) in mean change from single-blind placebo [1]: 1.1* | SBP: treatment group difference (from placebo) in mean change from single-blind placebo [1]: 1.1 | HR-BP Product: treatment group difference (from placebo) in mean change from single-blind placebo [1]: −187.7 | Pulse: treatment group difference (from placebo) in mean change from single-blind placebo [2]: −1.6 | DBP: treatment group difference (from placebo) in mean change from single-blind placebo [2]: 1.3* | SBP: treatment group difference (from placebo) in mean change from single-blind placebo [2]: 1.5 | HR-BP Product: treatment group difference (from placebo) in mean change from single-blind placebo [2]: −82.3 | Pulse: treatment group difference (from placebo) in mean change from single-blind placebo (0.75 mg SC, interval 4-8 h, V5): −6.2* | DBP: treatment group difference (from placebo) in mean change from single-blind placebo (0.75 mg SC, interval 4-8 h, V5): 1.3 | SBP: treatment group difference (from placebo) in mean change from single-blind placebo (0.75 mg SC, interval 4-8 h, V5): 0.9 | HR-BP Product: treatment group difference (from placebo) in mean change from single-blind placebo (0.75 mg SC, interval 4-8 h, V5): −676.5* | Pulse: treatment group difference (from placebo) in mean change from single-blind placebo (0.75 mg SC, interval 4-8 h, V7): −5.5* | DBP: treatment group difference (from placebo) in mean change from single-blind placebo (0.75 mg SC, interval 4-8 h, V7): 1.7 | SBP: treatment group difference (from placebo) in mean change from single-blind placebo (0.75 mg SC, interval 4-8 h, V7): 1.6 | HR-BP Product: treatment group difference (from placebo) in mean change from single-blind placebo (0.75 mg SC, interval 4-8 h, V7): −503.3* | Pulse: treatment group difference (from placebo) in mean change from single-blind placebo [3]: −0.4 | DBP: treatment group difference (from placebo) in mean change from single-blind placebo [3]: 1.0 | SBP: treatment group difference (from placebo) in mean change from single-blind placebo [3]: 0.9 | HR-BP Product: treatment group difference (from placebo) in mean change from single-blind placebo [3]: 5.2 | Pulse: treatment group difference (from placebo) in mean change from single-blind placebo [4]: 0.1 | DBP: treatment group difference (from placebo) in mean change from single-blind placebo [4]: 1.3* | SBP: treatment group difference (from placebo) in mean change from single-blind placebo [4]: 1.6 | HR-BP Product: treatment group difference (from placebo) in mean change from single-blind placebo [4]: 114.9 | Systolic blood pressure shifts: ΔSBP >10 mmHg, Duration >30 minutes (1.25 mg SC): 2 | Systolic blood pressure shifts: ΔSBP >15 mmHg, Duration >30 minutes (1.25 mg SC): 0 | Pulse: treatment group difference (from placebo) in mean change from single-blind placebo (1.25 mg SC, interval 0-4 h, V5): −5.2* | DBP: treatment group difference (from placebo) in mean change from single-blind placebo (1.25 mg SC, interval 0-4 h, V5): 3.0* | SBP: treatment group difference (from placebo) in mean change from single-blind placebo (1.25 mg SC, interval 0-4 h, V5): 2.4* | HR-BP Product: treatment group difference (from placebo) in mean change from single-blind placebo (1.25 mg SC, interval 0-4 h, V5): −436.4* | Pulse: treatment group difference (from placebo) in mean change from single-blind placebo (1.25 mg SC, interval 0-4 h, V7): −6.1* | DBP: treatment group difference (from placebo) in mean change from single-blind placebo (1.25 mg SC, interval 0-4 h, V7): 2.2* | SBP: treatment group difference (from placebo) in mean change from single-blind placebo (1.25 mg SC, interval 0-4 h, V7): 2.1* | HR-BP Product: treatment group difference (from placebo) in mean change from single-blind placebo (1.25 mg SC, interval 0-4 h, V7): −583.3* | Pulse: treatment group difference (from placebo) in mean change from single-blind placebo [5]: −2.9* | DBP: treatment group difference (from placebo) in mean change from single-blind placebo [5]: 1.9* | SBP: treatment group difference (from placebo) in mean change from single-blind placebo [5]: 1.1 | HR-BP Product: treatment group difference (from placebo) in mean change from single-blind placebo [5]: −265.9 | Pulse: treatment group difference (from placebo) in mean change from single-blind placebo [6]: −2.6* | DBP: treatment group difference (from placebo) in mean change from single-blind placebo [6]: 1.7* | SBP: treatment group difference (from placebo) in mean change from single-blind placebo [6]: 1.6* | HR-BP Product: treatment group difference (from placebo) in mean change from single-blind placebo [6]: −206.5 | Pulse: treatment group difference (from placebo) in mean change from single-blind placebo (1.25 mg SC, interval 4-8 h, V5): −6.1* | DBP: treatment group difference (from placebo) in mean change from single-blind placebo (1.25 mg SC, interval 4-8 h, V5): 2.2*
